# US11573281B2, “Magnetic resonance fingerprinting method for recordings with a contrast agent” (Bayer Aktiengesellschaft, priority 2018, dated 2023)
# Read-outs that look alike come from different tables or passages of the source.
# Key:
# [1] = molar relaxivity of Gd-EOB-DTPA in bile; assay type: physicochemical
# [2] = molar relaxivity of Gd-EOB-DTPA in urine; assay type: physicochemical
# [3] = molar relaxivity of Gd-EOB-DTPA in plasma; assay type: physicochemical; conditions: plasma vs bile
# [4] = molar relaxivity of Gd-EOB-DTPA in blood; assay type: physicochemical
# [5] = molar relaxivity of Gd-EOB-DTPA in liver tissue; assay type: physicochemical; conditions: for molar relaxivity: Liver tissue
# [6] = Water, Rohrer et al., cited from earlier work
# [7] = Plasma, Rohrer et al., cited from earlier work
# [8] = Blood, cited from earlier work
# [9] = Liver tissue, 0.47 T; Schuhmann-Giampieri et al.; cited from earlier work
compound,measurement,setting,value
"CCOc1ccc(CC(CN(CCN(CC(=O)[O-])CC(=O)[O-])CC(=O)[O-])N(CC(=O)[O-])CC(=O)[O-])cc1.[Gd+3].[Na+].[Na+] (centres unmarked) [Gd-EOB-DTPA, gadolinium ethoxybenzyl diethylenetriaminepentaacetic acid]",molar relaxivity,[1]; 1.41 T,5.6 ± 0.3 (s·mmol/L)^−1
same,molar relaxivity,[1]; 1.5 T,5.6 ± 0.4 (s·mmol/L)^−1
same,molar relaxivity,[1]; 3 T,5.6 ± 0.3 (s·mmol/L)^−1
same,molar relaxivity,[2]; 1.41 T,5.5 ± 0.1 (s·mmol/L)^−1
same,molar relaxivity,[2]; 1.5 T,5.5 ± 0.2 (s·mmol/L)^−1
same,molar relaxivity,[2]; 3 T,5.6 ± 0.1 (s·mmol/L)^−1
same,molar relaxivity in plasma compared with bile,[3],significantly higher
same,molar relaxivity,[4]; 1.41 T,8.1 ± 0.2 (s·mmol/L)^−1
same,molar relaxivity,[4]; 1.5 T,8.3 ± 0.3 (s·mmol/L)^−1
same,molar relaxivity,[4]; 3 T,7.2 ± 0.1 (s·mmol/L)^−1
same,molar relaxivity,[5]; 1.41 T,14.0 ± 2.8 (s·mmol/L)^−1
same,molar relaxivity,[5]; 1.5 T,16.4 ± 3.1 (s·mmol/L)^−1
same,molar relaxivity,[5]; 3 T,13.4 ± 4.0 (s·mmol/L)^−1
same,molar relaxivity in liver cells (hepatocytes) compared with plasma,[5]; liver cells (hepatocytes) vs plasma,significantly higher
same,molar relaxivity,[6]; 0.47 T,5.3^(1) (s·mmol/L)^−1
same,molar relaxivity,[6]; 1.5 T,4.7^(1) (s·mmol/L)^−1
same,molar relaxivity,[6]; 3 T,4.3^(1) (s·mmol/L)^−1
same,molar relaxivity,[7]; 0.47 T,8.7^(1) (s·mmol/L)^−1
same,molar relaxivity,[7]; 1.5 T,6.9^(1) (s·mmol/L)^−1
same,molar relaxivity,[7]; 3 T,6.2^(1) (s·mmol/L)^−1
same,molar relaxivity,"[8]; 0.47 T, Schuhmann-Giampieri et al.",11.0^(2) (s·mmol/L)^−1
same,molar relaxivity,"[8]; 1.5 T, Rohrer et al.",7.3 (s·mmol/L)^−1
same,molar relaxivity,[9],16.6^(2) (s·mmol/L)^−1
